Experimental data: PubChem BioAssay (NCI)
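In this assay, cells in 96-well plates receive the compound at five concentrations for 48 hours. Endpoints are linearly interpolated between the surrounding concentrations. Abbreviation: GI50, concentration required for 50% inhibition of growth. TGI marks complete inhibition of growth.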

How the values were obtained:
Assay in all cases: NCI anticancer screen, dose series, 48 h
[1] = test system: 786-0 renal
[2] = test system: A498 renal
[3] = test system: A549 NSCLC
[4] = test system: ACHN renal
[5] = test system: BT-549 breast
[6] = test system: CAKI-1 renal
[7] = test system: CCRF-CEM leukemia
[8] = test system: COLO 205 colon
[9] = test system: DU-145 prostate
[10] = test system: HCC-2998 colon
[11] = test system: HCT-116 colon
[12] = test system: HCT-15 colon
[13] = test system: HL-60(TB) leukemia
[14] = test system: HOP-62 NSCLC
[15] = test system: HOP-92 NSCLC
[16] = test system: HS 578T breast
[17] = test system: HT29 colon
[18] = test system: IGROV1 ovarian
[19] = test system: K-562 leukemia
[20] = test system: KM12 colon
[21] = test system: LOX IMVI melanoma
[22] = test system: M14 melanoma
[23] = test system: MALME-3M melanoma
[24] = test system: MCF7 breast
[25] = test system: MDA-MB-231 breast
[26] = test system: MDA-MB-435
[27] = test system: MOLT-4 leukemia
[28] = test system: NCI-H226 lung
[29] = test system: NCI-H460 lung
[30] = test system: NCI-H522 lung
[31] = test system: NCI/ADR-RES ovarian
[32] = test system: OVCAR-3 ovarian
[33] = test system: OVCAR-4 ovarian
[34] = test system: OVCAR-5 ovarian
[35] = test system: OVCAR-8 ovarian
[36] = test system: RPMI-8226 leukemia
[37] = test system: RXF 393 renal
[38] = test system: SF-268 CNS
[39] = test system: SF-295 CNS
[40] = test system: SF-539 CNS
[41] = test system: SK-MEL-2 melanoma
[42] = test system: SK-MEL-28 melanoma
[43] = test system: SK-MEL-5 melanoma
[44] = test system: SK-OV-3 ovarian
[45] = test system: SN12C renal
[46] = test system: SNB-19 CNS
[47] = test system: SNB-75 CNS
[48] = test system: SR leukemia
[49] = test system: SW-620 colon
[50] = test system: T-47D breast
[51] = test system: TK-10 renal
[52] = test system: U251 CNS
[53] = test system: UACC-257 melanoma
[54] = test system: UO-31 renal
[55] = test system: EKVX NSCLC
[56] = test system: NCI-H23 lung
[57] = test system: PC-3 prostate
[58] = test system: UACC-62 melanoma

Cc1cccc2nc3ccccc3c(Nc3ccc(NS(C)(=O)=O)cc3)c12
GI50 [1]: 5.03 µM
TGI [1]: 16.6 µM
GI50 [2]: 3.81 µM
TGI [2]: 19.4 µM
GI50 [3]: 1.88 µM
TGI [3]: 12.4 µM
GI50 [4]: 2.69 µM
TGI [4]: 11 µM
GI50 [5]: 14.3 µM
TGI [5]: 27.7 µM
GI50 [6]: 3.63 µM
TGI [6]: 19.9 µM
GI50 [7]: 3.26 µM
TGI [7]: 12.2 µM
GI50 [8]: 7.61 µM
TGI [8]: 24 µM
GI50 [9]: 3.76 µM
TGI [9]: 22.6 µM
GI50 [10]: 8.09 µM
TGI [10]: 21.4 µM
GI50 [11]: 3.67 µM
TGI [11]: 15.9 µM
GI50 [12]: 5.89 µM
TGI [12]: 31.6 µM
GI50 [13]: 2.05 µM
TGI [13]: 5.53 µM
GI50 [14]: 4.69 µM
TGI [14]: 17 µM
GI50 [15]: 2.17 µM
TGI [15]: 11.1 µM
GI50 [16]: 8.88 µM
TGI [16]: 31.7 µM
GI50 [17]: 5.18 µM
TGI [17]: 24.8 µM
GI50 [18]: 4.3 µM
TGI [18]: 38.6 µM
GI50 [19]: 5.62 µM
TGI [19]: 26.8 µM
GI50 [20]: 6.19 µM
TGI [20]: 22.4 µM
GI50 [21]: 3.38 µM
TGI [21]: 15.1 µM
GI50 [22]: 9.95 µM
TGI [22]: 23 µM
GI50 [23]: 4.99 µM
TGI [23]: 19.4 µM
GI50 [24]: 3.62 µM
TGI [24]: 21.7 µM
GI50 [25]: 9.57 µM
TGI [25]: 24.2 µM
GI50 [26]: 13.5 µM
TGI [26]: 34.2 µM
GI50 [27]: 1.72 µM
TGI [27]: 5.91 µM
GI50 [28]: 2.2 µM
TGI [28]: 7.15 µM
GI50 [29]: 2.45 µM
TGI [29]: 11.7 µM
GI50 [30]: 8.09 µM
TGI [30]: 22 µM
GI50 [31]: 15.8 µM
TGI [31]: 48.8 µM
GI50 [32]: 14.1 µM
TGI [32]: 37 µM
GI50 [33]: 13 µM
TGI [33]: 49.5 µM
GI50 [34]: 16.4 µM
TGI [34]: 38.9 µM
GI50 [35]: 6.23 µM
TGI [35]: 30.9 µM
GI50 [36]: 2.68 µM
TGI [36]: 9.19 µM
GI50 [37]: 10.8 µM
TGI [37]: 23.6 µM
GI50 [38]: 10.2 µM
TGI [38]: 30.2 µM
GI50 [39]: 5.2 µM
TGI [39]: 47.5 µM
GI50 [40]: 10.3 µM
TGI [40]: 22.8 µM
GI50 [41]: 16.9 µM
TGI [41]: 31.8 µM
GI50 [42]: 13.8 µM
TGI [42]: 29.6 µM
GI50 [43]: 4.91 µM
TGI [43]: 17.5 µM
GI50 [44]: 6.22 µM
TGI [44]: 55.5 µM
GI50 [45]: 3.55 µM
TGI [45]: 15.4 µM
GI50 [46]: 6.98 µM
TGI [46]: 56.2 µM
GI50 [47]: 13 µM
TGI [47]: 52.2 µM
GI50 [48]: 1.51 µM
TGI [48]: 6.7 µM
GI50 [49]: 4.27 µM
TGI [49]: 20.3 µM
GI50 [50]: 7.59 µM
TGI [50]: 24 µM
GI50 [51]: 6.58 µM
TGI [51]: 21 µM
GI50 [52]: 3.15 µM
TGI [52]: 13.5 µM
GI50 [53]: 10.4 µM
TGI [53]: 22.9 µM
GI50 [54]: 2.61 µM
TGI [54]: 12.4 µM

COc1ccc(/C(COc2ccc3oc(-c4ccccc4)cc(=O)c3c2)=N\O)cc1
GI50 [1]: 0.855 µM
TGI [1]: > 35.6 µM
GI50 [3]: 0.133 µM
TGI [3]: > 50 µM
GI50 [4]: 0.331 µM
TGI [4]: 20 µM
GI50 [5]: 0.836 µM
TGI [5]: 5.5 µM
GI50 [6]: 0.0618 µM
TGI [6]: 24.7 µM
GI50 [7]: 0.346 µM
TGI [7]: > 50 µM
GI50 [8]: 0.606 µM
TGI [8]: 19.2 µM
GI50 [9]: 2.27 µM
TGI [9]: 13.4 µM
GI50 [55]: 0.229 µM
TGI [55]: 1.91 µM
GI50 [10]: 0.145 µM
TGI [10]: 0.983 µM
GI50 [11]: < 0.005 µM
TGI [11]: 9.36 µM
GI50 [12]: 0.0264 µM
TGI [13]: > 23.2 µM
GI50 [14]: 1.72 µM
TGI [14]: > 50 µM
GI50 [15]: > 31.2 µM
TGI [15]: > 50 µM
GI50 [17]: 0.783 µM
TGI [17]: > 50 µM
GI50 [18]: < 0.005 µM
TGI [18]: > 50 µM
TGI [19]: > 33.3 µM
GI50 [20]: 0.0245 µM
TGI [20]: 1.89 µM
GI50 [21]: 0.0322 µM
TGI [21]: 2.69 µM
GI50 [22]: 0.321 µM
TGI [22]: > 50 µM
GI50 [24]: < 0.005 µM
TGI [24]: 11.6 µM
GI50 [25]: 0.182 µM
TGI [25]: 9.17 µM
GI50 [26]: < 0.005 µM
TGI [26]: < 0.005 µM
GI50 [27]: 0.678 µM
TGI [27]: > 50 µM
GI50 [28]: 12.3 µM
TGI [28]: > 50 µM
GI50 [56]: 0.189 µM
TGI [56]: 9.75 µM
GI50 [29]: 0.0882 µM
TGI [29]: > 16.3 µM
GI50 [30]: 1.87 µM
TGI [30]: 39.5 µM
GI50 [31]: 0.11 µM
TGI [31]: 5.51 µM
GI50 [32]: < 0.005 µM
TGI [32]: 0.0538 µM
GI50 [33]: 10.4 µM
TGI [33]: > 29.9 µM
GI50 [34]: 0.377 µM
TGI [34]: > 25.5 µM
GI50 [35]: 0.209 µM
GI50 [57]: 0.202 µM
TGI [57]: > 19.2 µM
GI50 [36]: 0.196 µM
TGI [36]: 20 µM
GI50 [37]: 47.4 µM
TGI [37]: > 50 µM
GI50 [38]: 0.162 µM
TGI [38]: 1.36 µM
GI50 [39]: < 0.005 µM
TGI [39]: 0.154 µM
GI50 [40]: 1.25 µM
TGI [40]: 2.72 µM
GI50 [41]: 32.1 µM
TGI [41]: > 50 µM
GI50 [42]: 0.65 µM
TGI [42]: 5.13 µM
GI50 [43]: 0.93 µM
TGI [43]: 7.98 µM
GI50 [44]: 0.747 µM
TGI [44]: > 33.5 µM
GI50 [45]: 0.231 µM
TGI [45]: 4.54 µM
GI50 [46]: 8.57 µM
TGI [46]: > 36.5 µM
GI50 [47]: 1.3 µM
TGI [47]: 23.2 µM
TGI [48]: > 50 µM
GI50 [49]: 0.382 µM
TGI [49]: > 50 µM
GI50 [50]: 2.41 µM
TGI [50]: > 50 µM
GI50 [51]: 0.149 µM
TGI [51]: 9.75 µM
GI50 [52]: 0.13 µM
TGI [52]: 12.2 µM
GI50 [53]: 0.316 µM
GI50 [58]: 0.0338 µM
TGI [58]: 2.22 µM
GI50 [54]: 1.6 µM
TGI [54]: > 50 µM
